In the assay the target is T1, CuCDH (Cerrena unicolor, UniProt S5R9V1).
T1 construct: native secreted intact flavocytochrome (heme b plus FAD domains) purified from culture supernatant; signal peptide (18 aa) removed; precursor 771 aa
In words: UV-visible spectrum of purified enzyme. The conditions noted are these: 100 mM sodium acetate, pH 4.5; oxidized and lactose-reduced. Format: binding.

Each structure is given as a SMILES string.

We go through one compound from publication PMC4515248 (Applied Biochemistry and Biotechnology, 2015).

T1 sequence (S5R9V1 19-771): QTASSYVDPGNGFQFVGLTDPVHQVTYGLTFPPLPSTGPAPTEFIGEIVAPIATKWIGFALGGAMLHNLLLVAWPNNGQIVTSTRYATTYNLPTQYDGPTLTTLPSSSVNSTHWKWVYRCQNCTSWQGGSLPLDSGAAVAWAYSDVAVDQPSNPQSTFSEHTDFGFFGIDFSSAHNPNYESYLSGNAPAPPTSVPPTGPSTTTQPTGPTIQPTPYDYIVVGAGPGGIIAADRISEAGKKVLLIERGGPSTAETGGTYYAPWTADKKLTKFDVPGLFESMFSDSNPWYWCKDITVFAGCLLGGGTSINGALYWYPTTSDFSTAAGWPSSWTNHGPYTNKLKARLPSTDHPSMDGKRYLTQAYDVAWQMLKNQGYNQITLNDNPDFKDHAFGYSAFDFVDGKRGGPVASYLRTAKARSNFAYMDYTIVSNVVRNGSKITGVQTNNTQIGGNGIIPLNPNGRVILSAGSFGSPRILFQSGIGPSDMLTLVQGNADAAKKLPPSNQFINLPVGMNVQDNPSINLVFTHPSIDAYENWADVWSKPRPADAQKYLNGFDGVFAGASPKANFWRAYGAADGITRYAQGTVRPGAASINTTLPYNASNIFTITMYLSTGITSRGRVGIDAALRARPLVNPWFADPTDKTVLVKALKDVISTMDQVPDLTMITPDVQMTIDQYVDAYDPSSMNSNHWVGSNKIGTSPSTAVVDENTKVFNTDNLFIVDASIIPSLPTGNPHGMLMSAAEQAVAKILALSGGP

As for `Cc1cc2nc3c(=O)[nH]c(=O)nc-3n(C[C@H](O)[C@H](O)[C@H](O)COP(=O)(O)OP(=O)(O)OC[C@H]3O[C@@H](n4cnc5c(N)ncnc54)[C@H](O)[C@@H]3O)c2cc1C` [FAD], the “UV-visible spectrum of purified enzyme” value is “indicated the presence of heme and flavin cofactors in the protein”.
